# Columns and labels:
# [1] = Solubility by HPLC (external standard method) compared with agomelatine of form II; type: physicochemical
# Protocol: By means of an external standard method, the compounds of Examples 1 and 2 are tested by HPLC and compared with agomelatine of form II. The results are presented in Table 4 in the form of % increase in solubility relative to the solubility of agomelatine of form II: […]
# [2] = Stability of samples in incubators, determined by HPLC; type: physicochemical; conditions: 30 days
SMILES,Solubility (increase versus agomelatine form II) in 0.1N HCl [1],Solubility (increase versus agomelatine form II) in a buffer pH 6.8 [1],Solubility (increase versus agomelatine form II) in water [1],"Stability ([2]; 25° C., 60% RH, open bottle)","Stability ([2]; 40° C., 75% RH, open bottle)","Stability ([2]; 50° C., closed bottle)","Stability ([2]; 70° C., closed bottle)"
"COc1ccc2cccc(CCNC(C)=O)c2c1.Cc1ccc(S(=O)(=O)O)cc1.O [Compound of Example 1, Agomelatine/p-Toluenesulphonic Acid (1/1) Monohydrate Co-Crystal]",+50%,+49%,+41%,Stable,Stable,Stable,Stable
"COc1ccc2cccc(CCNC(C)=O)c2c1.Cc1ccc(S(=O)(=O)O)cc1 [Compound of Example 2, Agomelatine/p-Toluenesulphonic Acid (1/1) Co-Crystal]",+45%,+60%,+35%,–,–,–,Stable

# From patent US9663451B2, “Forms of co-crystals of agomelatine and p toluenesulphonic acid, a process for their preparation and pharmaceutical compositions containing them” (LES LABORATOIRES SERVIER, priority 2013, dated 2017)
